# Reference: ChEMBL document CHEMBL1201862, “PubChem BioAssay data set” (2004)
# “And” between values parts separate entries of the source, which are not always exact repeats. Identical values can stand only once. The source made the active and inactive calls.
# How the values were obtained:
# [1] = target: T1, Corticotropin-releasing factor receptor 2/Corticotropin-releasing factor-binding protein (Homo sapiens, UniProt P24387+Q13324); assay: activators of CRF receptor 2 with binding protein – uHTS hits, confirmation (AID 602473); format: functional; settings: read-out: EC50_Mean
# T1 sequence (Q13324 whole entry): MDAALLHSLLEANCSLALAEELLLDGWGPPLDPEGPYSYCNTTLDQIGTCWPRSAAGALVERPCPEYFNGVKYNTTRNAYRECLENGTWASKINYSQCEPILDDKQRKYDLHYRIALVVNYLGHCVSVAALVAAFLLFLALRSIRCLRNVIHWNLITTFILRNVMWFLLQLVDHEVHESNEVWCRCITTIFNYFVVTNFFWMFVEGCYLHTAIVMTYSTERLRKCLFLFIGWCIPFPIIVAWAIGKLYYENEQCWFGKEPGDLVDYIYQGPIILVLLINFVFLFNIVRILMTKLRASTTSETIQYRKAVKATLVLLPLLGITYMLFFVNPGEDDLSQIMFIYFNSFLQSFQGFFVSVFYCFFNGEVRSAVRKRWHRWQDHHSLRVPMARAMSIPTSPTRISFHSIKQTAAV
# T1 sequence (P24387 whole entry): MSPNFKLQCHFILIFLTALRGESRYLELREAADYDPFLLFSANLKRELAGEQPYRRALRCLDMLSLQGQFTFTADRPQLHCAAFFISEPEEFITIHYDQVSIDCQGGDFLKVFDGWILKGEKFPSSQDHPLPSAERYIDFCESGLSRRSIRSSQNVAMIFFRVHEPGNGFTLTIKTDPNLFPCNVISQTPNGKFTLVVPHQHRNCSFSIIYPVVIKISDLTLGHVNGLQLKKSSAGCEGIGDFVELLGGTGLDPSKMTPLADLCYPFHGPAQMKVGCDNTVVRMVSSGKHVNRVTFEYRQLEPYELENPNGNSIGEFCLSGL
# [2] = target: T2, Heat shock factor protein 1 (Mus musculus, UniProt P38532); assay: inhibition of MG132-induced HSE-luciferase signal, confirmation, cell-based, NIH3T3, luminescence, dose retest (AID 2382); format: functional;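 also: NIH3T3 fibroblasts with HSF1-driven luciferase reporter stressed by proteasome inhibitor MG132; luminescence from HSF1-driven luciferase expression after 8 hours of MG132 stress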
# T2 sequence (P38532 whole entry): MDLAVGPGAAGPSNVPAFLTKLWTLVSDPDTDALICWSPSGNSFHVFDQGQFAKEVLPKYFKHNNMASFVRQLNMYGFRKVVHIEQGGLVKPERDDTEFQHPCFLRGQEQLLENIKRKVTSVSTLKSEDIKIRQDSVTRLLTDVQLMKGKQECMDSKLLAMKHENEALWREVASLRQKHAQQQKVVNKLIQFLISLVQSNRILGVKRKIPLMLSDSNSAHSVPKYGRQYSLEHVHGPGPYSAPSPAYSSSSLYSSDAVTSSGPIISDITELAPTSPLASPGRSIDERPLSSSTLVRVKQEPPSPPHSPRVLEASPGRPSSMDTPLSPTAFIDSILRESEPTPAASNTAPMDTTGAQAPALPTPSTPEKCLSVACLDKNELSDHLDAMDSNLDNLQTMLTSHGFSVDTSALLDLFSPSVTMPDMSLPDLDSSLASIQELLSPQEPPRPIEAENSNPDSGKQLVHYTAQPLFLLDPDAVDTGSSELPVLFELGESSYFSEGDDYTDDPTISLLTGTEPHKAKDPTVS
# [3] = target: T3, Rac GTPase-activating protein 1 (Homo sapiens, UniProt Q9H0H5); assay: MgcRacGAP GTPase-activating activity inhibitors, confirmation, biochemical, ADP Hunter fluorescence, primary and confirmatory (AID 624330); format: functional
# T3 sequence (Q9H0H5 whole entry): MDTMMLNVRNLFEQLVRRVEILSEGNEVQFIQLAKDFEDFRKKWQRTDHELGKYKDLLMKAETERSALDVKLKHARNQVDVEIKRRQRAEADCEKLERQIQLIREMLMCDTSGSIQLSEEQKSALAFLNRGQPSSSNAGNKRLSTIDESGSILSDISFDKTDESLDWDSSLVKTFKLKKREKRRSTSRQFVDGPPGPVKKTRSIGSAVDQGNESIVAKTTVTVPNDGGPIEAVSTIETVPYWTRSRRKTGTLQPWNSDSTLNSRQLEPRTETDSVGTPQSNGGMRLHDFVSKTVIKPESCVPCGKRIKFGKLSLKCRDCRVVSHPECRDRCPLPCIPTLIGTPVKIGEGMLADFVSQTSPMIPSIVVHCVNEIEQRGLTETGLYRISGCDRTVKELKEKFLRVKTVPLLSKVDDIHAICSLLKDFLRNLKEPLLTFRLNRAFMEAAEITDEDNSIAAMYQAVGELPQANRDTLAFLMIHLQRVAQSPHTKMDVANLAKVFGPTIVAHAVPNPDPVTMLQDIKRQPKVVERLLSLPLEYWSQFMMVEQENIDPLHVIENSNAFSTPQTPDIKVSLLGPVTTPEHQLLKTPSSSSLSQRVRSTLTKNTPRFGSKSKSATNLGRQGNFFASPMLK
# Cytochrome P450 2D6 = Cytochrome P450 2D6 (Homo sapiens, UniProt P10635);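 also: CYP2D6 member of a cytochrome P450 panel assay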
# Cytochrome P450 3A4 = Cytochrome P450 3A4 (Homo sapiens, UniProt P08684);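 also: CYP3A4 tested as one member of a cytochrome P450 panel screen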
# cells = format: functional
# [4] = inhibitors of intracellular T. cruzi replication, confirmation, NIH3T3 host cells, beta-gal luminescence (AID 2044); format: functional, cell-based;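 also: intracellular parasites grown in NIH/3T3 mouse fibroblasts as host cells; luminescent beta-galactosidase reporter signal from transgenic T. cruzi replicating inside host cells; inhibitors lower the luminescence signal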
# [5] = cytotoxicity toward NIH3T3 fibroblasts, dose response, counter-screen, cell-based, ATP luminescence, mouse fibroblasts (AID 2010); format: functional;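 also: cells exposed to compound for about 90 hours before reading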
# Cytochrome P450 2C9 = Cytochrome P450 2C9 (Homo sapiens, UniProt P11712)
# [6] = Shn3 3'UTR reporter inhibitors, dose response, cell-based, Clone20 osteoblasts, firefly luciferase, cherry-picked (AID 624132); format: functional;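 also: firefly luciferase luminescence from reporter carrying the Shn3 3'UTR in osteoblasts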
# [7] = HepG2 cell cytotoxicity, dose response, cytotoxicity control for Shn3 inhibitor project, CellTiter-Glo, cherry-picked (AID 624134); format: functional, cell-based
# [8] = control 3'UTR Renilla luciferase suppression, dose response, counter-screen for Shn3 inhibitor project, cell-based, Clone20-Shn3RL, cherry-picked (AID 624133); format: functional
# [9] = growth suppression of PTEN-null colon cells, dose response, cell-based, HCT116 PTEN knockout (AID 1047); format: functional;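 also: HCT116 colon tumor cells with PTEN knocked out; cells exposed to compound for 60 hours before readout; potency for loss of cell viability measured by luminescence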
# [10] = growth suppression of beta-catenin-knockout colon cells, dose response, cell-based, HCT116, human colon tumor (AID 1045); format: functional;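 also: HCT116 colon tumor cells with beta catenin knocked out; cells exposed to compound for 60 hours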
# Cytochrome P450 2C19 = Cytochrome P450 2C19 (Homo sapiens, UniProt P33261); assay: Cytochrome panel assay with activity outcomes. Panel member name: p450-cyp2c19 Compounds with AC50 equal or less than 10 uM are considered active; format: functional
# [11] = Luminescence Cell-Based Dose Retest to Confirm Inhibitors of Cancer Stem Cells. [Related pubchem assays (depositor defined):AID2717, AID2721]; format: functional; settings: Homo sapiens
# [12] = HEp-2 cell cytotoxicity, dose response, cytotoxicity control for RSV inhibitor project, HTS (AID 2410); format: functional; settings: human respiratory syncytial virus
# Sequence of Cytochrome P450 2C9 (P11712 whole entry): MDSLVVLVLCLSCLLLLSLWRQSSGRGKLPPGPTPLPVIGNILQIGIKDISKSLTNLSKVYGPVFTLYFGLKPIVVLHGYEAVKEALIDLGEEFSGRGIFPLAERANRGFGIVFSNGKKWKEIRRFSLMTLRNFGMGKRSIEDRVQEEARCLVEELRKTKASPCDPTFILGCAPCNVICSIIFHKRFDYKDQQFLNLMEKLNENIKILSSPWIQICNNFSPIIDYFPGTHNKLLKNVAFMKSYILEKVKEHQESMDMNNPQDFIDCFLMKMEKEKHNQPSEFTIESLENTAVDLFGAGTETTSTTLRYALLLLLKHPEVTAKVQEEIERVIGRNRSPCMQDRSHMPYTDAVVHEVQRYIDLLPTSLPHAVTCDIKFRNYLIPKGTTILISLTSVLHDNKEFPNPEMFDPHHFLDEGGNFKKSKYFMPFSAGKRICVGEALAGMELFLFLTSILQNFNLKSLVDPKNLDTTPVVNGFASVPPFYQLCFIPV
# Sequence of Cytochrome P450 3A4 (P08684 whole entry): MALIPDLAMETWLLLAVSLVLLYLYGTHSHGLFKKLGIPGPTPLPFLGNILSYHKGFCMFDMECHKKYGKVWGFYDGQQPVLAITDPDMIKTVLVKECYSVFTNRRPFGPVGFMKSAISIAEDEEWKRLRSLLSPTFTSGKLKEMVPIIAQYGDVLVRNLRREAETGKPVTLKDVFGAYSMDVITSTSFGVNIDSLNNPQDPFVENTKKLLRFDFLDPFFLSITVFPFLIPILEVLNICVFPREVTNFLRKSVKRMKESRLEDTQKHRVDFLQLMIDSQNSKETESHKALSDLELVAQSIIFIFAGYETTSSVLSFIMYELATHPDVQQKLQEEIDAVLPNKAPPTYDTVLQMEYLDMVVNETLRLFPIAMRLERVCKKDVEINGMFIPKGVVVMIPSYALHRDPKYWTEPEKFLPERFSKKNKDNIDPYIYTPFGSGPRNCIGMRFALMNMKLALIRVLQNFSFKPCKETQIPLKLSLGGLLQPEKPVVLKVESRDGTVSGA
# Sequence of Cytochrome P450 2D6 (P10635 whole entry): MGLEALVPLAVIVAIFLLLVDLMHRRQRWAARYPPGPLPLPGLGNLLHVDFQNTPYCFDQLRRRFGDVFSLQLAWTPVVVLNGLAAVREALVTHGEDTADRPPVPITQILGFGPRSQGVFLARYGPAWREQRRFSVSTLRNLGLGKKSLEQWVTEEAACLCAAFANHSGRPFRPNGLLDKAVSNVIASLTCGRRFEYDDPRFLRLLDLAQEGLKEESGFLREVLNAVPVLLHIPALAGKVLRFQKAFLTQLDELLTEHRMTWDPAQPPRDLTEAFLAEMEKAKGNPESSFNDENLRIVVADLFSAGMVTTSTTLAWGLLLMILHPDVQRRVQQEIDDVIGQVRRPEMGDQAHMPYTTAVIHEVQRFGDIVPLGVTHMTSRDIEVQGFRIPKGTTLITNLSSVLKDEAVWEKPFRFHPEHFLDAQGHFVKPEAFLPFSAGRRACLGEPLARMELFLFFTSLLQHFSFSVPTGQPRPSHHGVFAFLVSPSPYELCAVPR
# Sequence of Cytochrome P450 2C19 (P33261 whole entry): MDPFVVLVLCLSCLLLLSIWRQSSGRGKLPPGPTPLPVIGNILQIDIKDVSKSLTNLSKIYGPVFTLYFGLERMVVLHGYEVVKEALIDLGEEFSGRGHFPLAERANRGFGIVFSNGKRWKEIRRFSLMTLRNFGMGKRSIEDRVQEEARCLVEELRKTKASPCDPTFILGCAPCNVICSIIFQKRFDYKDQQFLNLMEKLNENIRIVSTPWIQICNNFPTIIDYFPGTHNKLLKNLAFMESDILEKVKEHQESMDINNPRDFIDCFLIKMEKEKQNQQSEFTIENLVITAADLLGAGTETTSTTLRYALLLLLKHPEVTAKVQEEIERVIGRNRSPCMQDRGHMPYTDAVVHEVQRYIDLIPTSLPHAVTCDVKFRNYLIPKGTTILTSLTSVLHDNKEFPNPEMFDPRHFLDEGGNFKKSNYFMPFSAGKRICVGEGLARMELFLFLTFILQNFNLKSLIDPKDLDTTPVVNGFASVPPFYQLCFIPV
compound,measurement,setting,value
COCCNC(=S)N/N=C/c1ccc(-c2ccc([N+](=O)[O-])cc2)o1,EC50,[1],5.95 µM (active)
CCc1ccc(C(=O)NC(CCSC)C(=O)OC)cc1 (stereo not given),EC50,[2],> 195 µM (not active)
COc1ccc(-c2ncc3ccccn23)cc1OC,IC50,[3],126 µM (active)
C/C=C1\C[N@@+]2(C)CC[C@@]34C(=C(C=O)[C@H]1C[C@H]32)Nc1ccccc14,AC50,Cytochrome P450 2D6,6.31 µM (inconclusive)
same,AC50,Cytochrome P450 3A4,0.00126 µM (inconclusive)
CCN(CC)S(=O)(=O)c1ccc(C(=O)OCn2nnc3ccccc3c2=O)cc1,IC50,cells,17.9 µM (active)
Cc1cccc(CN(C)CCc2ccccn2)c1,EC50,[4],0.517 µM (active)
same,EC50,[5],> 30 µM (not active)
same,AC50,Cytochrome P450 2D6,2.51 µM (inconclusive)
same,AC50,Cytochrome P450 2C9,0.355 µM (inconclusive)
Cc1cccc(Oc2ncc(-c3ccc(Cl)cc3)cn2)c1C,AC50,Cytochrome P450 2D6,17.8 µM (inconclusive)
same,AC50,Cytochrome P450 3A4,25.1 µM (inconclusive)
CN(c1cccc(Cl)c1)S(=O)(=O)c1cccc(C(=O)NCc2ccncc2)c1,AC50,[6],< 0.26 µM (active)
same,AC50,[7],61.5 µM (active)
same,AC50,[8],0.664 µM (active)
Cc1nn(Cc2c(F)c(F)c(F)c(F)c2F)c(C)c1NC(=O)c1c(-c2ccccc2)nn(-c2ccccc2)c1C,EC50,[9],21.9 µM (active)
same,EC50,[10],25.8 µM (active)
COc1ccc(-c2cc(C(F)(F)F)nc(N3CCN(C)CC3)n2)cc1OC,EC50,[9],29.2 µM (active)
same,EC50,[10],30.2 µM (active)
same,AC50,Cytochrome P450 2D6,28.2 µM (inconclusive)
COc1ccccc1N1CCN(CCCCN2C(=O)c3ccccc3C2=O)CC1 [NAN-190],AC50,Cytochrome P450 2D6,12.6 µM (inconclusive) and 10 µM (inconclusive)
same,AC50,Cytochrome P450 3A4,31.6 µM (inconclusive) and 1.58 µM (inconclusive)
Cc1ccc2oc(=O)c(/C=C(\O)c3ccccc3)nc2c1,EC50,[1],12.1 µM (active)
same,IC50,[3],48.6 µM (active)
CCNc1ncc2nc(-c3cn(C)c4ccccc34)c(=O)n(C)c2n1,AC50,Cytochrome P450 2D6,12.6 µM (inconclusive)
same,AC50,Cytochrome P450 3A4,10 µM (inconclusive)
same,AC50,Cytochrome P450 2C9,39.8 µM (inconclusive)
COc1ccccc1C1=NOC(COC(=O)c2ccc([N+](=O)[O-])cc2)C1 (stereo not given),IC50,cells,3.93 µM (active)
COC(=O)[C@@H](NC(=O)c1cc(COc2cncc(Cl)c2)on1)c1ccccc1,IC50,cells,5.52 µM (active)
Cc1ccccc1CN(C)CCc1ccccn1,IC50,[3],123 µM (active)
COc1ccccc1NCC(O)Cn1c2ccccc2c2ccccc21 (stereo not given),EC50,[9],34.3 µM (active)
same,EC50,[10],43.6 µM (active)
Cc1ccc(S(=O)(=O)N2CCN(c3ncnc4sccc34)CC2)cc1C,AC50,[6],3.53 µM (active)
same,AC50,[7],5.96 µM (active)
same,AC50,[8],6.17 µM (active)
O=C(OCC(=O)C12CC3CC(CC(C3)C1)C2)c1ccccn1,IC50,cells,37.8 µM (active)
Clc1ccc(NN(Cc2ccncc2)c2ccc(Cl)cc2)cc1,EC50,[1],> 53 µM (inactive)
CCOc1ccccc1CNC(=O)CCn1ccc2cc(S(=O)(=O)N3CCCCC3)ccc21,EC50,[2],> 195 µM (not active)
CCOc1ccc(CNC(c2ccccc2)c2ccccc2)cc1,EC50,[2],> 195 µM (not active)
CCOC(=O)c1sc(NC(=S)NC(=O)c2cccc(OC)c2)nc1C,EC50,[1],15 µM (active)
CCOc1ccccc1OCCOCCOc1c(Cl)cccc1Cl,EC50,[2],> 195 µM (not active)
COC(=O)c1[nH]c2ccc(C)cc2c1NC(=O)NC1CCCCC1,EC50,[9],20.2 µM (active)
same,EC50,[10],26.5 µM (active)
CCOCCN1CCC(OC(C)=O)C(C)C1 (stereo not given),AC50,Cytochrome P450 2C19; read-out: AC50,3.16 µM (inconclusive)
same,AC50,Cytochrome P450 2D6,12.6 µM (inconclusive)
CCN1C(=O)/C(=C/Nc2ccccc2)OC1=S,EC50,[2],> 195 µM (not active)
O=C(Nc1ccc2c(c1)OCCO2)c1cccc2nc3ccccc3nc12,EC50,[4],2.09 µM (active)
same,EC50,[9],93.9 µM (active)
same,EC50,[5],> 60 µM (not active)
same,EC50,[10],47 µM (active)
same,AC50,[11],2.59 µM (active)
same,AC50,Cytochrome P450 2D6,8.91 µM (inconclusive)
CCOC(=O)c1ccc(NC(=S)NC(=O)C2CCCC2)cc1,EC50,[2],> 195 µM (not active)
CCc1cc2c(nc1CC)CCN(CC/C(C)=N/OC[C@@H](O)[C@@H]1O[C@@H]3OC(C)(C)O[C@@H]3[C@H]1O)C2,AC50,Cytochrome P450 2C19; read-out: AC50,0.0316 µM (inconclusive)
same,AC50,Cytochrome P450 2D6,6.31 µM (inconclusive)
same,AC50,Cytochrome P450 3A4,6.31 µM (inconclusive)
CC(C)COc1ccc(C2(C#N)CC[N+](C)(C)CC2)cc1.[Br-],AC50,Cytochrome P450 2C19,inconclusive
same,AC50,Cytochrome P450 2D6,11.2 µM (inconclusive)
same,AC50,Cytochrome P450 3A4,39.8 µM (inconclusive)
Cc1c(C(=O)Nc2ccncc2)sc2nc(-c3ccc(F)cc3)cn12,CC50,[12],5.09 µM (active)
same,EC50,[9],27.9 µM (active)
same,EC50,[10],29.3 µM (active)
Cc1ccc(NC(=O)COC(=O)Cn2cnc3ccccc32)cc1S(=O)(=O)N(C)C,EC50,[2],> 195 µM (not active)
CCOc1cc(/C=N/NC(=O)CCn2nc(C)cc2C)ccc1O,IC50,[3],61.5 µM (active)
O=S(=O)(NCC1(N2CCOCC2)CCCCC1)c1ccc(Cl)cc1C(F)(F)F,EC50,[1],5.65 µM (active)
c1ncc(-c2ccoc2)c(NC2CC2)n1,AC50,Cytochrome P450 2C19; read-out: AC50,39.8 µM (inconclusive)
same,AC50,Cytochrome P450 2D6,25.1 µM (inconclusive)
Cc1cc2c(nc1C)CCCN2C[C@H](C)O/N=C1/[C@H]2O[C@@H]2[C@@H](O)[C@H]2[C@H]1CCn1c(=O)n(-c3ccccc3)c(=O)n12,AC50,Cytochrome P450 2D6,2.51 µM (inconclusive)
same,AC50,Cytochrome P450 3A4,6.31 µM (inconclusive)
N#Cc1ccc(C(c2nnnn2C2CCCC2)N2CCC(Cc3ccccc3)CC2)cc1 (stereo not given),AC50,Cytochrome P450 2D6,10 µM (inconclusive)
same,AC50,Cytochrome P450 2C9,11.2 µM (inconclusive)
O=C(Cn1c(C(=O)NCc2ccco2)cc2sccc21)c1ccccc1,IC50,[3],139 µM (active)
COc1cc(OC)c(OC)cc1CNc1cc(C)ccc1OC,AC50,[6],18.1 µM (active)
same,AC50,[7],47.2 µM (active)
same,AC50,[8],7.92 µM (active)
O=C(OCC12CC3CC(CC(C3)C1)C2)c1ccc(NCc2cc(O)ccc2O)cc1,AC50,[6],3.25 µM (active)
same,AC50,[7],66.7 µM (active)
same,AC50,[8],7.26 µM (active)
O=C(c1ccco1)N1CCC[C@@]2(CCN(c3ccncc3)C2)C1,AC50,Cytochrome P450 2D6,25.1 µM (inconclusive)
same,AC50,Cytochrome P450 2C9,15.8 µM (inconclusive)
